Article PMC11990670, “Exploring the Volatility, Phase Transitions, and Solubility Properties of Five Halogenated Benzaldehydes” (Molecules, 2025)
Converted amounts (≈) assume the structure as drawn. Values belong to the molecule of their own block, whether it stands above or below them.

What was measured:
[1] = Equilibrium solubility in water, saturation shake-flask method with UV-vis; conditions: 25 °C, thermodynamic from solid
Method: (§1) The concentration was measured by absorbances at 260 nm for 4-chlorobenzaldehyde, 263 nm for 4-bromobenzaldehyde and 2,4-dichlorobenzaldehyde, 297 nm for 2,6-dichlorobenzaldehyde, and 306 nm for 2,3-dichlorobenzaldehyde, using a Cary-60 UV–vis (Agilent) spectrophotometer. X-ray diffraction (XRD) and differential scanning calorimetry of residual solids were used to identify the eventual phase transformations. The purified samples of each compound studied were used for all experimental determinations, including the solubility measurements. After reaching the equilibrium, the residual solid was dried and analyzed using both DSC and XRD. The melting properties obtained from DSC were compared with those of the original purified sample, following the same procedure for the XRD analysis. […] As an example, the supporting information includes two thermograms and two XRD patterns for 2,4-dichlorobenzaldehyde (Figures S1 and S2). […] Equation (4) was derived from Equation (5), which is widely applicable to the solubility of solids.(4) ΔhydrGm°/kJ·mol^−1=9.17−5.71·log10(Scr/mol·m^−3)−ΔcrgGm°/kJ·mol^−1 (5) S=p^°/RTexpΔcrgGm°+ΔhydrGm°/−RT
An excess amount of each compound was added to a known volume of water in triplicate. […] After stirring, the solid phase was allowed to settle for 2 h. The pH of the saturated solutions was measured using a Mettler Toledo (Greifensee, Switzerland) FiveEasy F20 pH Meter calibrated with standard aqueous solutions (pH 7.00 and 4.01 or 10.1). Those solutions were then filtered through a 0.22 μm syringe hydrophilic filter (13 mm, PTFE, Labfil, Zhejiang, China) and diluted to the required concentration. The concentration of the compounds, expressed in molarity, was measured by absorbances using a Cary-60 UV–vis spectrophotometer (Agilent Technologies, Santa Clara, CA, USA) at 298.15 K (single cell Peltier accessory, ±0.15 K). The results reported in Table 6 are averaged from at least three replicates. Calibration was performed using solutions of known concentrations of each substance in water. These solutions were prepared by adding a precise mass of the substance and a specific volume of the solvent to a flask, then mixing until the substance was fully dissolved. The absorbance of these solutions was measured, and calibration curves were created.

[2] = Thermodynamic properties of sublimation and vaporization from Clarke and Glew fit of vapor pressures
Excerpt: The experimental crystalline and liquid vapor pressures were independently fitted by the Clarke and Glew Equation (1) in its truncated form:(1) Rlnp/p^°=−ΔcdgGm°θ/θ+ΔcdgHm°θ1/θ−1/T+ΔcdgCp,m°θθ/T−1+lnT/θ where R is the molar gas constant, p is the vapor pressure at the temperature T, p° is a selected reference pressure (p° = 10^5 Pa in this work), and θ is a reference temperature. The differences between gaseous and condensed phases of standard molar Gibbs energy, enthalpy, and the isobaric heat capacity are represented, respectively, by ΔcdgGm° , ΔcdgHm° , and ΔcdgCp,m° .
The values of ΔcdgCp,m° are generally achieved only when accurate experimental data measured over ca. 50 K are reachable. […] For comparison reasons, the values of ΔcrgCp,m° were also calculated as ΔcrgCp,m°(θ)=Cp,m°(g)−Cp,m°(cr) , where the terms Cp,m°(g) and Cp,m°(cr) are, respectively, the gas and crystalline isobaric molar heat capacities. […] The crystalline molar heat capacities, Cp,m°(cr) , were determined at different temperatures using differential scanning calorimetry, enabling the fit to second-order polynomials in temperature, represented by Equation (3) and reported in Table 3. […] The values of Cp,m°(cr,298.15 K) were derived from these equations, allowing ΔcrgCp,m°(298.15 K) to be calculated.

[3] = Gibbs energy of hydration and Henry's law volatility constant calculated from sublimation and solubility data; conditions: 25 °C; for Gibbs energy of hydration ΔhydrGm°: calculated by Equation (4); for log10(KHpc/kPa·m^3·mol^−1) Henry's law volatility constant: calculated by Equation (6); for KHpc×10^3 Henry's law volatility constant: value is KHpc multiplied by 10^3
Method: as §1
The standard states in Equation (5) are p° = 1 × 10^5 Pa for ΔcrgGm° , c° = 1 mol·L^−1 for ΔhydrGm° and s° = 1 mol·m^−3 for solubility. Using the experimental results of ΔhydrGm° , calculated through Equation (4), the values of Henry’s law volatility constants, KHpc, were determined in the logarithm form by Equation (6), that was adapted from Modarressi et al..

[4] = crystalline phase, θ = 298.15 K
[5] = crystalline phase, θ = 298.15 K, p° = 10^5 Pa
[6] = crystalline phase, θ = 307.92 K (mean temperature)
[7] = crystalline phase, θ = 334.82 K (triple point)
[8] = liquid phase including supercooled liquid, θ = 298.15 K
[9] = liquid phase including supercooled liquid, θ = 298.15 K, p° = 10^5 Pa
[10] = liquid phase, θ = 334.82 K (triple point)
[11] = liquid phase, θ = 354.31 K (mean temperature)
[12] = crystalline phase, θ = 313.72 K (mean temperature)
[13] = crystalline phase, θ = 343.90 K (triple point)
[14] = liquid phase, θ = 343.90 K (triple point)
[15] = liquid phase, θ = 350.04 K (mean temperature)
[16] = crystalline phase, θ = 315.46 K (mean temperature)
[17] = crystalline phase, θ = 342.99 K (triple point)
[18] = liquid phase, θ = 342.99 K (triple point)
[19] = liquid phase, θ = 358.95 K (mean temperature)
[20] = crystalline phase, θ = 303.88 K (mean temperature)
[21] = crystalline phase, θ = 330.02 K (triple point)
[22] = liquid phase, θ = 330.02 K (triple point)
[23] = liquid phase, θ = 345.37 K (mean temperature)

solubility at 72 h [1]: 853 µM (≈ 149 µg/mL)
triple point pressure ptp ([2]; Ttp = 334.82 K): 87.6 Pa
p (Equation (1)) vapor pressure [2, 4]: 2.47 Pa
ΔcdgGm°(θ) standard molar Gibbs energy of sublimation [2, 5]: 6.286 ± 0.0024 kcal/mol
ΔcdgHm°(θ) standard molar enthalpy of sublimation [2, 5]: 19.4 ± 0.072 kcal/mol
ΔcdgSm°(θ) (Equation (2)) standard molar entropy of sublimation [2, 5]: 184.1 ± 1.0 J·K^−1·mol^−1
p (Equation (1)) vapor pressure [2, 6]: 6.98 Pa
ΔcdgGm°(θ) standard molar Gibbs energy of sublimation [2, 6]: 5.856 ± 0.0024 kcal/mol
ΔcdgHm°(θ) standard molar enthalpy of sublimation [2, 6]: 19.4 ± 0.048 kcal/mol
p (Equation (1)) vapor pressure [2, 7]: 87.6 Pa
ΔcdgGm°(θ) standard molar Gibbs energy of sublimation [2, 7]: 4.685 ± 0.0072 kcal/mol
ΔcdgHm°(θ) standard molar enthalpy of sublimation [2, 7]: 19.2 ± 0.096 kcal/mol
p (Equation (1)) vapor pressure [2, 8]: 5.81 Pa
ΔcdgGm°(θ) standard molar Gibbs energy of vaporization [2, 9]: 5.779 ± 0.019 kcal/mol
ΔcdgHm°(θ) standard molar enthalpy of vaporization [2, 9]: 15 ± 0.263 kcal/mol
ΔcdgSm°(θ) (Equation (2)) standard molar entropy of vaporization [2, 9]: 129.2 ± 3.7 J·K^−1·mol^−1
p (Equation (1)) vapor pressure [2, 10]: 87.6 Pa
ΔcdgGm°(θ) standard molar Gibbs energy of vaporization [2, 10]: 4.685 ± 0.0072 kcal/mol
ΔcdgHm°(θ) standard molar enthalpy of vaporization [2, 10]: 14.3 ± 0.096 kcal/mol
p (Equation (1)) vapor pressure [2, 11]: 282 Pa
ΔcdgGm°(θ) standard molar Gibbs energy of vaporization [2, 11]: 4.132 ± 0.0024 kcal/mol
ΔcdgHm°(θ) standard molar enthalpy of vaporization [2, 11]: 14 ± 0.024 kcal/mol
Gibbs energy of hydration ΔhydrGm° [3]: -3.99 kcal/mol
log10(KHpc/kPa·m^3·mol^−1) Henry's law volatility constant [3]: −2.53
KHpc×10^3 Henry's law volatility constant [3]: 2.95 kPa·m^3·mol^−1
Compound: O=Cc1cccc(Cl)c1Cl [2,3-Dichlorobenzaldehyde]

Compound: O=Cc1ccc(Cl)cc1Cl [2,4-Dichlorobenzaldehyde]
solubility at 72 h [1]: 821 µM (≈ 144 µg/mL)
triple point pressure ptp ([2]; Ttp = 343.90 K): 2.01 × 10^2 Pa
p (Equation (1)) vapor pressure [2, 4]: 2.64 Pa
ΔcdgGm°(θ) standard molar Gibbs energy of sublimation [2, 5]: 6.245 ± 0.0024 kcal/mol
ΔcdgHm°(θ) standard molar enthalpy of sublimation [2, 5]: 19.5 ± 0.048 kcal/mol
ΔcdgSm°(θ) (Equation (2)) standard molar entropy of sublimation [2, 5]: 185.7 ± 0.7 J·K^−1·mol^−1
p (Equation (1)) vapor pressure [2, 12]: 13.5 Pa
ΔcdgGm°(θ) standard molar Gibbs energy of sublimation [2, 12]: 5.557 ± 0.0024 kcal/mol
ΔcdgHm°(θ) standard molar enthalpy of sublimation [2, 12]: 19.4 ± 0.024 kcal/mol
p (Equation (1)) vapor pressure [2, 13]: 201 Pa
ΔcdgGm°(θ) standard molar Gibbs energy of sublimation [2, 13]: 4.242 ± 0.0048 kcal/mol
ΔcdgHm°(θ) standard molar enthalpy of sublimation [2, 13]: 19.1 ± 0.12 kcal/mol
p (Equation (1)) vapor pressure [2, 8]: 7.95 Pa
ΔcdgGm°(θ) standard molar Gibbs energy of vaporization [2, 9]: 5.593 ± 0.012 kcal/mol
ΔcdgHm°(θ) standard molar enthalpy of vaporization [2, 9]: 14.8 ± 0.17 kcal/mol
ΔcdgSm°(θ) (Equation (2)) standard molar entropy of vaporization [2, 9]: 129.1 ± 2.4 J·K^−1·mol^−1
p (Equation (1)) vapor pressure [2, 14]: 201 Pa
ΔcdgGm°(θ) standard molar Gibbs energy of vaporization [2, 14]: 4.242 ± 0.0048 kcal/mol
ΔcdgHm°(θ) standard molar enthalpy of vaporization [2, 14]: 14 ± 0.024 kcal/mol
p (Equation (1)) vapor pressure [2, 15]: 289 Pa
ΔcdgGm°(θ) standard molar Gibbs energy of vaporization [2, 15]: 4.068 ± 0.0024 kcal/mol
ΔcdgHm°(θ) standard molar enthalpy of vaporization [2, 15]: 13.9 ± 0.024 kcal/mol
Gibbs energy of hydration ΔhydrGm° [3]: -3.94 kcal/mol
log10(KHpc/kPa·m^3·mol^−1) Henry's law volatility constant [3]: −2.50
KHpc×10^3 Henry's law volatility constant [3]: 3.16 kPa·m^3·mol^−1

solubility at 72 h [1]: 1130 µM (≈ 197 µg/mL)
triple point pressure ptp ([2]; Ttp = 342.99 K): 85.7 Pa
p (Equation (1)) vapor pressure [2, 4]: 0.95 Pa
ΔcdgGm°(θ) standard molar Gibbs energy of sublimation [2, 5]: 6.85 ± 0.0024 kcal/mol
ΔcdgHm°(θ) standard molar enthalpy of sublimation [2, 5]: 20.5 ± 0.096 kcal/mol
ΔcdgSm°(θ) (Equation (2)) standard molar entropy of sublimation [2, 5]: 192.0 ± 1.3 J·K^−1·mol^−1
p (Equation (1)) vapor pressure [2, 16]: 6.35 Pa
ΔcdgGm°(θ) standard molar Gibbs energy of sublimation [2, 16]: 6.059 ± 0.0024 kcal/mol
ΔcdgHm°(θ) standard molar enthalpy of sublimation [2, 16]: 20.4 ± 0.024 kcal/mol
p (Equation (1)) vapor pressure [2, 17]: 85.7 Pa
ΔcdgGm°(θ) standard molar Gibbs energy of sublimation [2, 17]: 4.814 ± 0.0048 kcal/mol
ΔcdgHm°(θ) standard molar enthalpy of sublimation [2, 17]: 20.2 ± 0.17 kcal/mol
p (Equation (1)) vapor pressure [2, 8]: 2.84 Pa
ΔcdgGm°(θ) standard molar Gibbs energy of vaporization [2, 9]: 6.202 ± 0.0239 kcal/mol
ΔcdgHm°(θ) standard molar enthalpy of vaporization [2, 9]: 15.8 ± 0.287 kcal/mol
ΔcdgSm°(θ) (Equation (2)) standard molar entropy of vaporization [2, 9]: 135.0 ± 4.0 J·K^−1·mol^−1
p (Equation (1)) vapor pressure [2, 18]: 85.7 Pa
ΔcdgGm°(θ) standard molar Gibbs energy of vaporization [2, 18]: 4.814 ± 0.0048 kcal/mol
ΔcdgHm°(θ) standard molar enthalpy of vaporization [2, 18]: 15 ± 0.072 kcal/mol
p (Equation (1)) vapor pressure [2, 19]: 225 Pa
ΔcdgGm°(θ) standard molar Gibbs energy of vaporization [2, 19]: 4.348 ± 0.0024 kcal/mol
ΔcdgHm°(θ) standard molar enthalpy of vaporization [2, 19]: 14.7 ± 0.024 kcal/mol
Gibbs energy of hydration ΔhydrGm° [3]: -4.73 kcal/mol
log10(KHpc/kPa·m^3·mol^−1) Henry's law volatility constant [3]: −3.07
KHpc×10^3 Henry's law volatility constant [3]: 0.851 kPa·m^3·mol^−1
Compound: O=Cc1c(Cl)cccc1Cl [2,6-Dichlorobenzaldehyde]

solubility at 72 h [1]: 3710 µM (≈ 687 µg/mL)
triple point pressure ptp ([2]; Ttp = 330.02 K): 99.1 Pa
p (Equation (1)) vapor pressure [2, 4]: 4.59 Pa
ΔcdgGm°(θ) standard molar Gibbs energy of sublimation [2, 5]: 5.918 ± 0.0024 kcal/mol
ΔcdgHm°(θ) standard molar enthalpy of sublimation [2, 5]: 19 ± 0.048 kcal/mol
ΔcdgSm°(θ) (Equation (2)) standard molar entropy of sublimation [2, 5]: 183.3 ± 0.7 J·K^−1·mol^−1
p (Equation (1)) vapor pressure [2, 20]: 8.40 Pa
ΔcdgGm°(θ) standard molar Gibbs energy of sublimation [2, 20]: 5.667 ± 0.0024 kcal/mol
ΔcdgHm°(θ) standard molar enthalpy of sublimation [2, 20]: 18.9 ± 0.048 kcal/mol
p (Equation (1)) vapor pressure [2, 21]: 99.1 Pa
ΔcdgGm°(θ) standard molar Gibbs energy of sublimation [2, 21]: 4.536 ± 0.0072 kcal/mol
ΔcdgHm°(θ) standard molar enthalpy of sublimation [2, 21]: 18.7 ± 0.17 kcal/mol
p (Equation (1)) vapor pressure [2, 8]: 9.57 Pa
ΔcdgGm°(θ) standard molar Gibbs energy of vaporization [2, 9]: 5.483 ± 0.012 kcal/mol
ΔcdgHm°(θ) standard molar enthalpy of vaporization [2, 9]: 14.6 ± 0.17 kcal/mol
ΔcdgSm°(θ) (Equation (2)) standard molar entropy of vaporization [2, 9]: 128.3 ± 2.4 J·K^−1·mol^−1
p (Equation (1)) vapor pressure [2, 22]: 99.1 Pa
ΔcdgGm°(θ) standard molar Gibbs energy of vaporization [2, 22]: 4.536 ± 0.0072 kcal/mol
ΔcdgHm°(θ) standard molar enthalpy of vaporization [2, 22]: 14 ± 0.072 kcal/mol
p (Equation (1)) vapor pressure [2, 23]: 254 Pa
ΔcdgGm°(θ) standard molar Gibbs energy of vaporization [2, 23]: 4.101 ± 0.0024 kcal/mol
ΔcdgHm°(θ) standard molar enthalpy of vaporization [2, 23]: 13.7 ± 0.024 kcal/mol
Gibbs energy of hydration ΔhydrGm° [3]: -4.49 kcal/mol
log10(KHpc/kPa·m^3·mol^−1) Henry's law volatility constant [3]: −2.90
KHpc×10^3 Henry's law volatility constant [3]: 1.26 kPa·m^3·mol^−1
Compound: O=Cc1ccc(Br)cc1 [4-Bromobenzaldehyde]
